Data on 18 compounds can be found in ChEMBL document CHEMBL5120979, “Oral Nonpeptidic, Noncovalent Triazine Coronavirus Main Protease Inhibitors for Treating COVID-19” (ACS Med Chem Lett, 2022).

A word on the IC50: it is the midpoint of a concentration-inhibition curve. For orientation: EC50 means the concentration that produces a half-maximal response.

Assay [1] concerns the target Replicase polyprotein 1ab (Severe acute respiratory syndrome coronavirus 2, UniProt P0DTD1). As to the kind of experiment: Inhibition of recombinant SARS-CoV-2 main protease usingDABCYLKTSAVLQSGFRKME(EDANS)-NH2 fluorogenic peptide substrate by FRET assay.
The next assay has as its system SARS-CoV-2. As to the kind of experiment: Antiviral activity against SARS-CoV-2 infected in African green monkey VeroE6 cells expressing TMPRSS2. The assay is classed as functional, organism-based. The conditions noted are these: Severe acute respiratory syndrome coronavirus 2, Vero C1008.

With `Cn1cnc(Cn2c(=O)nc(Nc3cc4cn(C)nc4cc3Cl)n(Cc3cc(F)c(F)c(F)c3)c2=O)c1`, the IC50 in assay [1] was determined as 6 nM. Moreover, the EC50 in the assay on SARS-CoV-2 worked out at 1030 nM.

In the case of `Cn1cnc(Cn2c(=O)nc(NC3=CC4CCOC4C=C3Cl)n(Cc3cc(F)c(F)c(F)c3)c2=O)n1` (stereo not given), the IC50 in assay [1] came to 15 nM. Further, the EC50 in the assay on SARS-CoV-2 stood at 385 nM. As to `Cc1cncc(-n2c(=O)nc(Nc3cc4cn(C)nc4cc3Cl)n(Cc3cc(F)c(F)c(F)c3)c2=O)c1`, in the assay on SARS-CoV-2, the response was half-maximal at 177 nM (EC50). For `Cn1cc2cc(Nc3nc(=O)n(-c4cncc(C(F)(F)F)c4)c(=O)n3Cc3cc(F)c(F)c(F)c3)c(Cl)cc2n1`, the EC50 in the assay on SARS-CoV-2 was 6600 nM. `Cn1cc2cc(Nc3nc(=O)n(Cc4cc(Cl)ccn4)c(=O)n3Cc3cc(F)c(F)cc3F)c(Cl)cc2n1` had an EC50 with SARS-CoV-2 of 1520 nM. For the compound `Cn1cnc(Cn2c(=O)nc(Nc3cc4cn(C)nc4cc3Cl)n(Cc3cc(F)c(F)c(F)c3F)c2=O)n1`, the IC50 in assay [1] amounted to 10 nM. In the assay with SARS-CoV-2, this compound came in with an EC50 of 395 nM. In turn, `CCn1cc2cc(Nc3nc(=O)n(Cc4ncn(C)n4)c(=O)n3Cc3cc(F)c(F)cc3F)c(Cl)cc2n1` yielded an EC50 in the assay with SARS-CoV-2 of 533 nM. In the case of `Cc1cncc(-n2c(=O)nc(Nc3cc4cn(C)nc4cc3Cl)n(Cc3cc(C#N)c(F)cc3C)c2=O)c1`, the IC50 in assay [1] was 2 nM. Besides, in the assay with SARS-CoV-2, the EC50 stood at 35 nM. In the assay with SARS-CoV-2, `Cc1cncc(-n2c(=O)nc(Nc3cc4cn(C)nc4cc3Cl)n(Cc3cc(F)c(F)cc3F)c2=O)c1` yielded an EC50 of 131 nM. As to `Cn1cc2cc(Nc3nc(=O)n(Cc4cc5ccsc5[nH]c4=O)c(=O)n3Cc3cc(F)c(F)c(F)c3)c(Cl)cc2n1`, the IC50 in assay [1] came to 4 nM. Further, the EC50 in the assay on SARS-CoV-2 was found to be 321 nM. On to `Cn1cc2cc(Nc3nc(=O)n(-c4cncc5c4COC5)c(=O)n3Cc3cc(Cl)c(F)cc3F)c(Cl)cc2n1`, for which the EC50 in the assay with SARS-CoV-2 came to 680 nM.

Regarding `Cn1cnc(Cn2c(=O)nc(Nc3cc4cn(CC(F)F)nc4cc3Cl)n(Cc3cc(F)c(F)cc3F)c2=O)n1`, in assay [1], the IC50 is 9 nM. Moreover, the EC50 in the assay with SARS-CoV-2 is 342 nM. On to `CCNC(=O)Cn1c(=O)nc(Nc2cc3cn(C)nc3cc2Cl)n(Cc2cc(F)c(F)c(F)c2)c1=O`, for which the EC50 in the assay on SARS-CoV-2 came out at 11500 nM. In the assay with SARS-CoV-2, `Cn1cnc(Cn2c(=O)nc(Nc3cc4cn(C)nc4cc3Cl)n(Cc3cccc4ccccc34)c2=O)n1` showed an EC50 of 22500 nM. `Cn1cnc(Cn2c(=O)nc(Nc3cc4cn(C)nc4cc3Cl)n(Cc3cc(Cl)c(F)c(Cl)c3)c2=O)n1`: the IC50 in assay [1] was found to be 5 nM. Moreover, the EC50 in the assay on SARS-CoV-2 worked out at 750 nM. The compound `Cn1cnc(Cn2c(=O)nc(Nc3cc4cn(C)nc4cc3Cl)n(Cc3cc(F)c(F)c(F)c3)c2=O)n1` gave an EC50 in the assay on SARS-CoV-2 of 450 nM.

Compound `Cc1cnc(Cn2c(=O)nc(Nc3cc4cn(C)nc4cc3Cl)n(Cc3cc(F)c(F)cc3F)c2=O)nc1` came in with an EC50 with SARS-CoV-2 of 5850 nM. In the assay on SARS-CoV-2, `Cn1cnc(Cn2c(=O)nc(Nc3cc4c(F)n(C)nc4cc3Cl)n(Cc3cc(F)c(F)cc3F)c2=O)n1` had a concentration giving a half-maximal response (EC50) of 750 nM.
